Experimental data published in paper PMC8062851, “2-Methoxyestradiol and its derivatives inhibit store-operated Ca^2+ entry in T cells: Identification of a new and potent inhibitor” (Biochimica et Biophysica Acta. Molecular Cell Research, 2021).
Entries after “also recorded” stand apart in the source; their conditions may differ.

Assays:
KV1.3 channels = tested on: KV1.3 channels; set-up: method as in patent WO2005/009954A2 (compound 66); settings: ref patent WO2005/009954A2 (compound 66); cited from earlier work
SERCA pumps = test: SERCA activity (ATP-induced Ca2+ reuptake) in permeabilized Jurkat T cells; type: cell-based, human
Method: (§1) 3 ∗ 10^7 Jurkat T-lymphocytes per measurement were centrifuged at 450 ×g for 5 min at room temperature. The pellet was rinsed twice, each time using 10 ml permeabilization buffer 1 (120 mM KCl, 10 mM NaCl, 1.2 mM MgCl2, 0.533 mM CaCl2, 1 mM EGTA and 10 mM HEPES, pH 7.2 (KOH), sterile filtered). Subsequently, the pellet was resuspended in 2 ml permeabilization buffer 1 containing 80 μg/ml saponin (Fluka) and the cells were incubated for 10 min at 37 °C. Subsequently, the cells were centrifuged at 450 ×g for 5 min at room temperature and the cell pellet was washed once in 10 ml permeabilization buffer 2 (120 mM KCl, 10 mM NaCl, 1.2 mM MgCl2 and 10 mM HEPES, pH 7.2 (KOH), sterile filtered). Finally, the cells were taken up in 1 ml permeabilization buffer 2, placed into a cuvette and measured at the fluorescence spectrophotometer. Before the start of the measurement, 0.5 μl of 1 mM Fura2 free acid (dissolved in pure water, final concentration: 0.5 μM), 5 μl of 5 mg/ml creatinkinase (dissolved in permeabilization buffer 2, final concentration: 25 μg/ml, 20 U/ml, Roche) and 10 μl of 2 M creatin phosphate (dissolved in permeabilization buffer 2, final concentration: 20 mM, Calbiochem) were added. Fura2 was used to measure the Ca^2+ concentration and creatinkinase and creatin phosphate were used as ATP-regenerating system. The measurement was controlled by FL Solutions (Version 4.1, Hitachi High-Technologies Corporation). Fura2 was alternatively excited every 2 s at 340 ± 5 nm and 380 ± 5 nm, each 400 ms apart. Fluorescence intensity was measured at an emission wavelength of 495 ± 5 nm for both excitation wavelengths. […] Ca^2+ concentrations were calculated according to Grynkiewicz et al. as described earlier in Section 2.4.
(§2) As a quantitative read-out for inhibition of IP3 receptors, the peak [Ca^2+] after IP3 addition was subtracted from the mean [Ca^2+] between 25 and 75 s before IP3 addition (dPeak). […] The rate constant K of the fitted data was used as a quantitative read-out for SERCA pump activity and its inhibition.

TMBP cells = test: In vitro activation of TMBP cells by MBP, cytokine mRNA by qPCR; type: cell-based, rat; settings: TMBP cells + MBP; 6 h; qPCR; STX564 vs Synta66
Method: Myelin basic protein (MBP)-reactive CD4^+ T cells retrovirally transduced to express enhanced GFP (TMBP cells) were established as previously reported. In brief, 6–8 week old female Lewis rats were immunized subcutaneously with 150 μl of emulsion consisting of equal parts of MBP (stock concentration: 1 mg/ml) and complete Freund's adjuvant containing heat-inactivated Mycobacterium tuberculosis extract (Difco; stock concentration: 2 mg/ml). Draining lymph nodes were harvested and passed through a cell strainer (40 μm) 9–10 days after immunization. The cell suspension was co-cultured with GP + E86 packaging cell lines producing replication-deficient retroviruses in the presence of 10 μg/ml MBP. Murine IL-2 was added to the culture for T cell expansion from day 2–4 after stimulation. The cell lines underwent 3–4 cycles of stimulation before being used for in vitro and in vivo experiments. […] Upon stimulation, they produced interferon-γ and IL-17.
In vitro activation assays were performed in 96-well plates. […]. TMBP cell activation on mRNA level was determined using qPCR and on surface protein level using surface marker staining and subsequent flow cytometry analysis.
Total RNA was isolated using the standard TRIzol method. cDNA was synthesized using the RevertAid First Strand cDNA Synthesis Kit (Thermo Fisher Scientific). Quantitative PCR (qPCR) was performed using the StepOnePlus™ Real-Time PCR System (Applied Biosystems), as previously described [[23], [24], [25]]. Rat TMBP cell data were obtained from three to four independent duplicate measurements. β-actin served as housekeeping gene. Human PBMC data were obtained from two independent healthy donors and duplicate measurements (representative data of one donor are shown). HPRT served as housekeeping gene. For all probes (TaqMan), a combination of 5′-FAM and 3′-TAMRA quencher was used as described.

ORAI1 = target: T1, ORAI1 (Homo sapiens, UniProt Q96D31); test: Live cell Ca2+ imaging of G-GECO1.2-ORAI1 transfected Jurkat T cells; type: cell-based; settings: 10 μM
T1 construct: host or cells: Jurkat T-lymphocytes (electroporation)
Method: 12.5 ∗ 10^6 Jurkat T–lymphocytes were pelleted at 400 to 450 ×g for 5 min at room temperature and pellets were dissolved in 500 μl RPMI 1640 medium (Gibco) without phenol red containing L-glutamine, supplemented with 7.5% (v/v) NCS. 30 μg plasmid-DNA (G-GECO1.2-ORAI1) was transferred into a 4 mm electroporation cuvette (Biozym, Austria) and the Jurkat T-lymphocytes were added. G-GECO1.2-ORAI1 was a gift from Michael Cahalan, USA (Addgene plasmid # 73562). After an incubation of 5 min at 37 °C, cells were electroporated with 960 μF and 240 V (τ: […]). […]
17 to 22 h after electroporation, 5 ∗ 10^4 cells were pelleted at 400–450 ×g for 5 min at room temperature and cell pellets were dissolved in 50 μl nominal Ca^2+ free buffer. […] The fluorophore was excited at 488 nm every 2 s for 30 min and fluorescence was measured at 520 nm using Volocity (Version 6.3, Perkin Elmer).
Using ImageJ (Version 1.51 k, National Institutes of Health, USA) the pictures were analyzed for mean fluorescence in the outer ring of Jurkat T-lymphocytes employing ring-shaped regions of interest (ROIs). […] The mean background fluorescence values were subtracted from the signal in every image. For quantitative analysis, fluorescence intensities were normalized to the first fluorescence intensity (F/F0).

[1] = tested on: alpha-dendrotoxin sensitive KV channels, likely KV1.1, KV1.2 and/or KV1.6; settings: 10 μM; ref Di Sabatino et al. [36]; cited from earlier work
IP3 receptors = test: IP3-evoked Ca2+ release in permeabilized Jurkat T cells; type: cell-based, human; settings: 2 μM IP3
Method: as §1, §2

T1 sequence (Q96D31 whole entry): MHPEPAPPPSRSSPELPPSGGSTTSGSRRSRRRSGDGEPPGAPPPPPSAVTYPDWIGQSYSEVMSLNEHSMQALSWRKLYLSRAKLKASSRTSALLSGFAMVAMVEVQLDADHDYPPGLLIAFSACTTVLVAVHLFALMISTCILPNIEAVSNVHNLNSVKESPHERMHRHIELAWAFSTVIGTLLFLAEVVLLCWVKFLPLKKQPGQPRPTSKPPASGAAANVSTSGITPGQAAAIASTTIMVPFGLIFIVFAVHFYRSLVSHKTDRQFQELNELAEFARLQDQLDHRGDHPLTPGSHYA

SMILES: COc1ccc(OC)c(-c2ccc(NC(=O)c3ccncc3F)cc2)c1 [Synta66]
- inhibition of KV1.3 channels (KV1.3 channels): inhibits KV1.3 channels
- effect on SERCA activity (initial slope of [Ca2+] upon ATP addition) (SERCA pumps): Neither STX564, Synta66 nor vehicle DMSO affected ATP-induced Ca^2+ reuptake by SERCA pumps; also recorded: neither STX564 nor Synta66 showed any effect
- concentration at which interferon-γ expression was significantly antagonized (TMBP cells): ≥ 10 µM
- SOCE by ORAI1 (G-GECO1.2-ORAI1 fluorescence) (ORAI1): almost completely diminished
- inhibition of alpha-dendrotoxin sensitive KV channels [1]: < 10%
- effect on IP3-evoked Ca2+ release (IP3 receptors): Neither STX564 nor Synta66 affected IP3-evoked Ca^2+ release significantly; also recorded: did not inhibit the Ca^2+ release by IP3
